Results: US20230356105A1, “TETRAAZADODECANE BASED CHELATING AGENTS FOR SEPARATION OF RARE EARTH ELEMENTS AND METHOD THEREFOR” (Ustav Organicke Chemie a Biochemie AV CR V.V.I., priority 2020, published 2023)

Experiment: Use of additives to improve separation of Nd/Dy mixture by precipitation with L5 (Example 18)
Format: physicochemical
Settings: 11 mM L5
Experimental: Stock solutions were pipetted into plastic 1×1 cm cuvettes to prepare reaction mixtures with concentrations as follows: • 1. […] 5 mM NdCl3 • 3. 5 mM DyCl3 • 4. 500 mM MOPS pH=7 • 5. the additive of interest, in a variable concentration; if possible, stock solutions were prepared from Na^+ salt forms of the compound; if not, the stock solutions were titrated by NaOH/HCl to pH=7 prior to addition (see Table 12 for additives and concentrations)
These aqueous reaction mixtures, each prepared to a total volume of 2.0 mL with the addition of water as necessary, were mixed by the use of a PTFE-coated stir bar on a magnetic stirrer. The cuvettes were sealed with transparent tape to prevent evaporation overnight. The reaction mixtures were stirred for 18 hours, at which point 500 μL aliquots of each reaction mixture were transferred into plastic 2 mL Eppendorf tubes and centrifuged. The supernatants were carefully pipetted out and transferred to a new set of tubes. The precipitate was dissolved by addition of 500 μL 1M HCl. The absolute concentration of Nd and Dy in each supernatant and precipitate was determined by ICP-OES.

SMILES | Precipitate concentration [mM] Dy (additive 20 mM) [mM] | Precipitate concentration [mM] Nd (additive 20 mM) [mM] | Supernatant concentration [mM] Dy (additive 20 mM) [mM] | Supernatant concentration [mM] Nd (additive 20 mM) [mM] | Precipitate concentration [mM] Dy (additive 250 mM) [mM] | Precipitate concentration [mM] Nd (additive 250 mM) [mM] | Supernatant concentration [mM] Dy (additive 250 mM) [mM] | Supernatant concentration [mM] Nd (additive 250 mM) [mM] | Precipitate concentration [mM] Dy (additive 100 mM) [mM] | Precipitate concentration [mM] Nd (additive 100 mM) [mM] | Supernatant concentration [mM] Dy (additive 100 mM) [mM] | Supernatant concentration [mM] Nd (additive 100 mM) [mM] | Precipitate concentration [mM] Dy (additive 500 mM) [mM] | Precipitate concentration [mM] Nd (additive 500 mM) [mM] | Supernatant concentration [mM] Dy (additive 500 mM) [mM] | Supernatant concentration [mM] Nd (additive 500 mM) [mM] | Precipitate concentration [mM] Dy (additive 1000 mM) [mM] | Precipitate concentration [mM] Nd (additive 1000 mM) [mM] | Supernatant concentration [mM] Dy (additive 1000 mM) [mM] | Supernatant concentration [mM] Nd (additive 1000 mM) [mM] | also measured
OB(O)c1ccccc1 [phenylboronic acid] | 4.33 | 5.02 | 0.31 | 0.08 | 3.36 | 4.12 | 1.22 | 0.87 | – | – | – | – | – | – | – | – | – | – | – | – | –
O=S(=O)(O)O [sulfate] | – | – | – | – | 4.09 | 4.96 | 0.47 | 0.08 | 4.52 | 4.90 | 0.34 | 0.07 | 3.57 | 4.30 | 1.00 | 0.59 | 3.35 | 4.61 | 1.20 | 0.34 | –
O=C(O)c1ccccc1O [salicylic acid] | 4.36 | 4.88 | 0.42 | 0.07 | – | – | – | – | – | – | – | – | – | – | – | – | – | – | – | – | –
c1ccncc1 [pyridine] | 4.33 | 4.90 | 0.28 | 0.06 | 4.02 | 4.67 | 0.41 | 0.09 | – | – | – | – | – | – | – | – | – | – | – | – | –
O=C(O)CO [glycolate] | 0.82 | 4.33 | 3.82 | 0.64 | – | – | – | – | – | – | – | – | – | – | – | – | – | – | – | – | Precipitate concentration [mM] Dy (additive 5 mM): 2.61 mM; Precipitate concentration [mM] Nd (additive 5 mM): 4.64 mM; Supernatant concentration [mM] Dy (additive 5 mM): 1.73 mM; Supernatant concentration [mM] Nd (additive 5 mM): 0.09 mM; Precipitate concentration [mM] Dy (additive 10 mM): 1.71 mM; Precipitate concentration [mM] Nd (additive 10 mM): 4.92 mM; Supernatant concentration [mM] Dy (additive 10 mM): 2.93 mM; Supernatant concentration [mM] Nd (additive 10 mM): 0.20 mM; Precipitate concentration [mM] Dy (additive 15 mM): 1.11 mM; Precipitate concentration [mM] Nd (additive 15 mM): 4.54 mM; Supernatant concentration [mM] Dy (additive 15 mM): 3.13 mM; Supernatant concentration [mM] Nd (additive 15 mM): 0.35 mM
O=CO [formate] | – | – | – | – | 3.33 | 5.38 | 1.68 | 0.11 | 3.84 | 4.85 | 1.09 | 0.42 | 2.09 | 4.93 | 2.51 | 0.22 | – | – | – | – | Precipitate concentration [mM] Dy (additive 50 mM): 4.33 mM; Precipitate concentration [mM] Nd (additive 50 mM): 5.17 mM; Supernatant concentration [mM] Dy (additive 50 mM): 0.51 mM; Supernatant concentration [mM] Nd (additive 50 mM): 0.07 mM
NCC(=O)O [glycine] | – | – | – | – | – | – | – | – | 2.79 | 4.61 | 1.99 | 0.42 | – | – | – | – | – | – | – | – | Precipitate concentration [mM] Dy (additive 50 mM): 3.60 mM; Precipitate concentration [mM] Nd (additive 50 mM): 4.90 mM; Supernatant concentration [mM] Dy (additive 50 mM): 1.01 mM; Supernatant concentration [mM] Nd (additive 50 mM): 0.09 mM; Precipitate concentration [mM] Dy (additive 150 mM): 2.44 mM; Precipitate concentration [mM] Nd (additive 150 mM): 4.91 mM; Supernatant concentration [mM] Dy (additive 150 mM): 2.25 mM; Supernatant concentration [mM] Nd (additive 150 mM): 0.11 mM; Precipitate concentration [mM] Dy (additive 200 mM): 1.86 mM; Precipitate concentration [mM] Nd (additive 200 mM): 4.69 mM; Supernatant concentration [mM] Dy (additive 200 mM): 2.85 mM; Supernatant concentration [mM] Nd (additive 200 mM): 0.28 mM
O=C(O)c1cccc(C(=O)O)n1 [dipicolinic acid] | 0.36 | 2.66 | 4.29 | 2.21 | – | – | – | – | – | – | – | – | – | – | – | – | – | – | – | – | –
N#C[S-].[Na+] [thiocyanate] | – | – | – | – | – | – | – | – | 4.46 | 4.66 | 0.31 | 0.14 | 4.16 | 4.65 | 0.72 | 0.36 | 3.26 | 4.63 | 1.70 | 0.41 | Precipitate concentration [mM] Dy (additive 200 mM): 4.42 mM; Precipitate concentration [mM] Nd (additive 200 mM): 4.60 mM; Supernatant concentration [mM] Dy (additive 200 mM): 0.51 mM; Supernatant concentration [mM] Nd (additive 200 mM): 0.41 mM
O=[N+]([O-])O [nitrate] | – | – | – | – | – | – | – | – | 4.27 | 4.39 | 0.36 | 0.14 | 4.16 | 4.46 | 0.82 | 0.14 | 3.23 | 4.61 | 1.72 | 0.15 | Precipitate concentration [mM] Dy (additive 200 mM): 3.89 mM; Precipitate concentration [mM] Nd (additive 200 mM): 3.97 mM; Supernatant concentration [mM] Dy (additive 200 mM): 0.41 mM; Supernatant concentration [mM] Nd (additive 200 mM): 0.15 mM
Cl [chloride] | – | – | – | – | – | – | – | – | 4.58 | 4.62 | 0.29 | 0.24 | 4.29 | 4.39 | 0.24 | 0.11 | 4.88 | 4.97 | 0.24 | 0.11 | Precipitate concentration [mM] Dy (additive 200 mM): 4.48 mM; Precipitate concentration [mM] Nd (additive 200 mM): 4.57 mM; Supernatant concentration [mM] Dy (additive 200 mM): 0.22 mM; Supernatant concentration [mM] Nd (additive 200 mM): 0.12 mM
O=C(O)c1ccccn1 [picolinic acid] | 0 | 0 | 5 | 5 | – | – | – | – | – | – | – | – | – | – | – | – | – | – | – | – | –
C[C@H](O)C(=O)O [l-lactate] | 1.18 | 4.33 | 3.57 | 0.50 | – | – | – | – | – | – | – | – | – | – | – | – | – | – | – | – | Precipitate concentration [mM] Dy (additive 5 mM): 3.15 mM; Precipitate concentration [mM] Nd (additive 5 mM): 4.33 mM; Supernatant concentration [mM] Dy (additive 5 mM): 1.59 mM; Supernatant concentration [mM] Nd (additive 5 mM): 0.51 mM; Precipitate concentration [mM] Dy (additive 10 mM): 2.08 mM; Precipitate concentration [mM] Nd (additive 10 mM): 4.49 mM; Supernatant concentration [mM] Dy (additive 10 mM): 2.47 mM; Supernatant concentration [mM] Nd (additive 10 mM): 0.21 mM; Precipitate concentration [mM] Dy (additive 15 mM): 1.60 mM; Precipitate concentration [mM] Nd (additive 15 mM): 4.38 mM; Supernatant concentration [mM] Dy (additive 15 mM): 3.21 mM; Supernatant concentration [mM] Nd (additive 15 mM): 0.49 mM
